Measurements reported in patent US9062078B2, “Substituted 7-azabicyles and their use as orexin receptor modulators” (priority 2013, dated 2015).
Where two headings read alike, the source gives them in different places.

Legend:
rat orexin 1 receptor = rat orexin 1 receptor (Rattus norvegicus, UniProt P56718); experiment: Rat orexin 1 receptor radioligand binding (competitive, [3H]-SB674042, HEK293 cell preparations)
human orexin 1 receptor = human orexin 1 receptor (Homo sapiens (Human), UniProt O43613); experiment: Human orexin 1 receptor radioligand binding (competitive, [3H]-SB674042, CHO cell preparations)
human orexin 1 receptor, sequence (O43613 whole entry): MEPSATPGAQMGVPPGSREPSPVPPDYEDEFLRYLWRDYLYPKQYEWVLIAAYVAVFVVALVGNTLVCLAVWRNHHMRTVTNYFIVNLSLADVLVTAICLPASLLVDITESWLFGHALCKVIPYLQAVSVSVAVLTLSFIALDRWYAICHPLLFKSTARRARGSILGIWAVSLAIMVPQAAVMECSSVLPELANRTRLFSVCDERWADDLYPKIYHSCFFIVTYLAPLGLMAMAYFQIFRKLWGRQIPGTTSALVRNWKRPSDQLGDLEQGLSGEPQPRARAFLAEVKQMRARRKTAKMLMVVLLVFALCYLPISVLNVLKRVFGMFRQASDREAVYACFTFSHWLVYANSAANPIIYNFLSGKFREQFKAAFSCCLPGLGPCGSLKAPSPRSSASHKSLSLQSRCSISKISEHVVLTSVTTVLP

human orexin 2 receptor = human orexin 2 receptor (Homo sapiens (Human), UniProt O43614); experiment: Human orexin 2 receptor radioligand binding (competitive, [3H]-EMPA, HEK293 cell preparations)
human orexin 2 receptor, sequence (O43614 whole entry): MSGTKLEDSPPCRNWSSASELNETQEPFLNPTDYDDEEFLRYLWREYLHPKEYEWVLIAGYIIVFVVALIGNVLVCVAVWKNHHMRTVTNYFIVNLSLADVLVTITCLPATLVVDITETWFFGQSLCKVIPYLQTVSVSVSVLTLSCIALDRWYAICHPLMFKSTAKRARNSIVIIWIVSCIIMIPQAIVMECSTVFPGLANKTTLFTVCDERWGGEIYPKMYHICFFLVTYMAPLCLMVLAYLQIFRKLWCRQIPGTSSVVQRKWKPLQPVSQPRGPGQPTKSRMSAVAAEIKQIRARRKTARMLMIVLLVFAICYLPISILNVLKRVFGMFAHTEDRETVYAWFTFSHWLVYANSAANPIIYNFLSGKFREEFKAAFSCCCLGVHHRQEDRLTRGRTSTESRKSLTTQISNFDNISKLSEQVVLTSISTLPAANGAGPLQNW

[1] = human orexin 2 receptor, [3H]-EMPA competition binding, read-out: hOX2 Ki (nm)
[2] = rat orexin 1 receptor, [3H]-SB674042 competition binding, read-out: rOX1 Ki (nm)
[3] = human orexin 1 receptor, [3H]-SB674042 competition binding, read-out: hOX1 Ki (nm)

Row | SMILES | Ki (human orexin 2 receptor; [1]) [nM] | Ki (human orexin 1 receptor; [3]) [nM] | Ki (human orexin 2 receptor; hOX2 Ki (nm)) [nM] | Ki (human orexin 1 receptor; hOX1 Ki (nm)) [nM] | further results
1 | O=C(c1cccc(F)c1-c1ncccn1)N1[C@@H]2CC[C@H]1[C@H](Nc1cnc(C(F)(F)F)cn1)C2 [Example 238, (3-fluoro-2-(pyrimidin-2-yl)phenyl)((1S,2R,4R)-2-((5-(trifluoromethyl)pyrazin-2-yl)amino)-7-azabicyclo[2.2.1]heptan-7-yl)methanone] | – | – | – | – | Ki (rat orexin 1 receptor; read-out: rOX1 Ki (nm)): 16 nM; Ki (human orexin 1 receptor; read-out: hOX1 Ki (nm)): 16 nM; Ki (human orexin 2 receptor; read-out: hOX2 Ki (nm)): 955 nM
2 | COc1ccc(C(=O)N2[C@@H]3CC[C@H]2[C@H](Nc2cnc(C(F)(F)F)cn2)C3)c(-c2ncccn2)c1 [Example 249, (4-methoxy-2-(pyrimidin-2-yl)phenyl)((1S,2R,4R)-2-((5-(trifluoromethyl)pyrazin-2-yl)amino)-7-azabicyclo[2.2.1]heptan-7-yl)methanone] | 5600 | – | – | – | Ki (rat orexin 1 receptor; read-out: rOX1 Ki (nm)): 57 nM; Ki (human orexin 1 receptor; read-out: hOX1 Ki (nm)): 54 nM
3 | O=C(c1ccc(F)cc1-c1ncccn1)N1[C@@H]2CC[C@H]1[C@H](Nc1cnc(C(F)(F)F)cn1)C2 [Example 267, (4-fluoro-2-(pyrimidin-2-yl)phenyl)((1S,2R,4R)-2-((5-(trifluoromethyl)pyrazin-2-yl)amino)-7-azabicyclo[2.2.1]heptan-7-yl)methanone] | 1700 | – | – | – | Ki (rat orexin 1 receptor; read-out: rOX1 Ki (nm)): 33 nM; Ki (human orexin 1 receptor; read-out: hOX1 Ki (nm)): 61 nM
4 | Cc1ccc(-c2ncco2)c(C(=O)N2C3CCC2C(COc2ccccn2)C3)n1 (racemic) [Example 93, (±)-(6-methyl-3-(oxazol-2-yl)pyridin-2-yl)(2-((pyridin-2-yloxy)methyl)-7-azabicyclo[2.2.1]heptan-7-yl)methanone] | – | 73 | 836 | – | Ki (rat orexin 1 receptor; [2]): 40 nM
5 | O=C(c1ccccc1-n1nccn1)N1C2CCC1C(Nc1ccc(C(F)(F)F)cn1)C2 (racemic) [Example 196, (±)-(2-(2H-1,2,3-triazol-2-yl)phenyl)(2-(5-(trifluoromethyl)pyridin-2-yl)amino)-7-azabicyclo[2.2.1]heptan-7-yl)methanone] | 1500 | – | – | 61 | Ki (rat orexin 1 receptor; rOX1 Ki (nm)): 59 nM
6 | Cc1ccc(-n2cccn2)c(C(=O)N2C3CCC2C(COc2ccc(F)cn2)C3)n1 (racemic) [Example 70, (±)-(2-(((5-fluoropyridin-2-yl)oxy)methyl)-7-azabicyclo[2.2.1]heptan-7-yl)(6-methyl-3-(1H-pyrazol-1-yl)pyridin-2-yl)methanone] | 624 | 62 | – | – | Ki (rat orexin 1 receptor; [2]): 88 nM
7 | Cc1ccc(-n2nccn2)c(C(=O)N2C3CCC2C(COc2ncccc2C)C3)n1 (racemic) [Example 55, (±)-(6-methyl-3-(2H-1,2,3-triazol-2-yl)pyridin-2-yl)(2-(((3-methylpyridin-2-yl)oxy)methyl)-7-azabicyclo[2.2.1]heptan-7-yl)methanone] | 202 | – | – | 150 | Ki (rat orexin 1 receptor; rOX1 Ki (nm)): 119 nM
8 | Cc1cccc(C(=O)N2[C@@H]3CC[C@H]2[C@H](Nc2cnc(C(F)(F)F)cn2)C3)c1-n1nccn1 [Example 245, (3-methyl-2-(2H-1,2,3-triazol-2-yl)phenyl)((1S,2R,4R)-2-((5-(trifluoromethyl)pyrazin-2-yl)amino)-7-azabicyclo[2.2.1]heptan-7-yl)methanone] | 288 | – | – | – | Ki (rat orexin 1 receptor; read-out: rOX1 Ki (nm)): 10 nM; Ki (human orexin 1 receptor; read-out: hOX1 Ki (nm)): 7 nM
9 | CCOc1ncc2ccccc2c1C(=O)N1[C@@H]2CC[C@H]1[C@H](COc1ccccn1)C2 [Example 164, (3-ethoxyisoquinolin-4-yl)((1S,2R,4R)-2-((pyridin-2-yloxy)methyl)-7-azabicyclo[2.2.1]heptan-7-yl)methanone] | – | – | – | – | Ki (rat orexin 1 receptor; read-out: rOX1 Ki (nm)): 9 nM; Ki (human orexin 1 receptor; read-out: hOX1 Ki (nm)): 7 nM
10 | Cc1cc(C)nc(NCC2CC3CCC2N3C(=O)c2cc(F)ccc2-n2nccn2)n1 (racemic) [Example 170, (±)-(2-(((4,6-dimethylpyrimidin-2-yl)amino)methyl)-7-azabicyclo[2.2.1]heptan-7-yl)(5-fluoro-2-(2H-1,2,3-triazol-2-yl)phenyl)methanone] | – | 1960 | 512 | – | –
11 | Cc1cccc(OCC2CC3CCC2N3C(=O)c2cccc(F)c2-n2nccn2)n1 (racemic) [Example 142, (±)-(3-fluoro-2-(2H-1,2,3-triazol-2-yl)phenyl)(2-(((6-methylpyridin-2-yl)oxy)methyl)-7-azabicyclo[2.2.1]heptan-7-yl)methanone] | 300 | 207 | – | – | –
12 | Cc1ccc(C(=O)N2C3CCC2C(COc2nccc(C(F)(F)F)n2)C3)c(-n2ccnn2)n1 (racemic) [Example 132, (±)-(6-methyl-2-(1H-1,2,3-triazol-1-yl)pyridin-3-yl)(2-(((4-(trifluoromethyl)pyrimidin-2-yl)oxy)methyl)-7-azabicyclo[2.2.1]heptan-7-yl)methanone] | 7400 | – | – | ≥ 10000 | –
13 | CCOc1ncc2ccccc2c1C(=O)N1C2CCC1C(COc1ccccn1)C2 (racemic) [Example 83, (±)-(3-ethoxyisoquinolin-4-yl)(2-((pyridin-2-yloxy)methyl)-7-azabicyclo[2.2.1]heptan-7-yl)methanone] | – | – | – | 12 | Ki (rat orexin 1 receptor; rOX1 Ki (nm)): 17 nM
14 | O=C(c1ccccc1-n1nccn1)N1[C@@H]2CC[C@H]1[C@H](Nc1cnc(C(F)(F)F)cn1)C2 [Example 181, (2-(2H-1,2,3-triazol-2-yl)phenyl)((1S,2R,4R)-2-((5-(trifluoromethyl)pyrazin-2-yl)amino)-7-azabicyclo[2.2.1]heptan-7-yl)methanone] | – | – | 700 | 28 | –
15 | Cc1ccc(C(=O)N2C3CCC2C(COc2cnc4ccccc4n2)C3)c(-n2ccnn2)n1 (racemic) [Example 148, (±)-(6-methyl-2-(1H-1,2,3-triazol-1-yl)pyridin-3-yl)(2-((quinoxalin-2-yloxy)methyl)-7-azabicyclo[2.2.1]heptan-7-yl)methanone] | 3200 | 6300 | – | – | –
16 | Cc1ccc(C(=O)N2C3CCC2C(COc2ccccn2)C3)c(-n2nccn2)n1 (racemic) [Example 128, (±)-(6-methyl-2-(2H-1,2,3-triazol-2-yl)pyridin-3-yl)(2-((pyridin-2-yloxy)methyl)-7-azabicyclo[2.2.1]heptan-7-yl)methanone] | ≥ 10000 | 5700 | – | – | –
17 | Cc1ccc(-c2ncccn2)c(C(=O)N2C3CCC2C(COc2nc(C)cc(C)n2)C3)c1 (racemic) [Example 45, (±)-(2-(((4,6-dimethylpyrimidin-2-yl)oxy)methyl)-7-azabicyclo[2.2.1]heptan-7-yl)(5-methyl-2-(pyrimidin-2-yl)phenyl)methanone] | 59 | 79 | – | – | –
18 | Cc1cc(C)nc(OCC2CC3CCC2N3C(=O)c2ccc(C)nc2-n2ccnn2)n1 (racemic) [Example 152, (±)-(2-(((4,6-dimethylpyrimidin-2-yl)oxy)methyl)-7-azabicyclo[2.2.1]heptan-7-yl)(6-methyl-2-(1H-1,2,3-triazol-1-yl)pyridin-3-yl)methanone] | 5900 | ≥ 10000 | – | – | –
19 | O=C(c1ccccc1-c1cccs1)N1[C@H]2CC[C@@H]1[C@@H](COc1ccc(F)cn1)C2 (single isomer, unassigned) [Example 12B, ((1R*,2S*,4S*)-2-(((5-fluoropyridin-2-yl)oxy)methyl)-7-azabicyclo[2.2.1]heptan-7-yl)(2-(thiophen-2-yl)phenyl)methanone] | – | – | 5 | 3 | –
20 | O=C(c1ccccc1-n1nccn1)N1C2CCC1C(Nc1cnc(C(F)(F)F)cn1)C2 (racemic) [Example 182, (±)-((2-(2H-1,2,3-triazol-2-yl)phenyl)(2-((5-(trifluoromethyl)pyrazin-2-yl)amino)-7-azabicyclo[2.2.1]heptan-7-yl)methanone] | – | – | 1100 | 38 | –
21 | Cc1noc(-c2ccccc2C(=O)N2C3CCC2C(COc2ccccn2)C3)n1 (racemic) [Example 127, (±)-(2-(3-methyl-1,2,4-oxadiazol-5-yl)phenyl)(2-((pyridin-2-yloxy)methyl)-7-azabicyclo[2.2.1]heptan-7-yl)methanone] | 1100 | 190 | – | – | –
22 | O=C(c1ccccc1-c1cccs1)N1C2CCC1C(COc1ccc(F)cn1)C2 (racemic) [Example 11, (±)-(2-(((5-fluoropyridin-2-yl)oxy)methyl)-7-azabicyclo[2.2.1]heptan-7-yl)(2-(thiophen-2-yl)phenyl)methanone] | – | – | 12 | 10 | –
23 | O=C(c1occc1-c1ccccc1)N1C2CCC1C(COc1ccc(F)cn1)C2 (racemic) [Example 27, (±)-2-(((5-fluoropyridin-2-yl)oxy)methyl)-7-azabicyclo[2.2.1]heptan-7-yl)(3-phenylfuran-2-yl)methanone] | – | 677 | 380 | – | –
24 | Cc1ccc(C(=O)N2C3CCC2C(COc2cnc4ccccc4n2)C3)c(-n2nccn2)n1 (racemic) [Example 168, (±)-(6-methyl-2-(2H-1,2,3-triazol-2-yl)pyridin-3-yl)(2-((quinoxalin-2-yloxy)methyl)-7-azabicyclo[2.2.1]heptan-7-yl)methanone] | – | 2300 | 7300 | – | –
25 | Cc1ccc(OCC2CC3CCC2N3C(=O)c2ccc(C)nc2-n2nccn2)nc1 (racemic) [Example 135, (±)-(6-methyl-2-(2H-1,2,3-triazol-2-yl)pyridin-3-yl)(2-(((5-methylpyridin-2-yl)oxy)methyl)-7-azabicyclo[2.2.1]heptan-7-yl)methanone] | 3900 | – | – | 5400 | –
26 | Cc1noc(-c2c(F)cccc2C(=O)N2[C@@H]3CC[C@H]2[C@H](Nc2cnc(C(F)(F)F)cn2)C3)n1 [Example 254, (3-fluoro-2-(3-methyl-1,2,4-oxadiazol-5-yl)phenyl)((1S,2R,4R)-2-((5-(trifluoromethyl)pyrazin-2-yl)amino)-7-azabicyclo[2.2.1]heptan-7-yl)methanone] | 377 | – | – | – | Ki (human orexin 1 receptor; read-out: hOX1 Ki (nm)): 20 nM
27 | O=C(c1cccc(F)c1-n1nccn1)N1C2CCC1C(COc1nccc(C(F)(F)F)n1)C2 (racemic) [Example 134, (±)-(3-fluoro-2-(2H-1,2,3-triazol-2-yl)phenyl)(2-(((4-(trifluoromethyl)pyrimidin-2-yl)oxy)methyl)-7-azabicyclo[2.2.1]heptan-7-yl)methanone] | – | – | 690 | 1500 | –
